Results on 13 compounds are retold here after patent US10251889B2, “Substituted pyrazolo[1,5-a]pyrimidine compounds as Trk kinase inhibitors” (Array BioPharma, Inc., priority 2009, dated 2019).

pIC50: −log10 of the molar value. Like-named read-outs stand apart in the source and are kept apart here.

What all share (format): biochemical
In experiment [1] the target is Jak3 (GST-tagged human Jak3 kinase domain, amino acids 781-1124) (Homo sapiens (Human), UniProt P52333). Kind of experiment: Jak3 inhibition assay (Omnia kinase assay). As to conditions: read-out: Jak3 (% inhibition at 1000 nM); Table 2; 1000 nM test compound. On the procedure: (§1) The assays described in Examples C, D, E and F for the determination of JAK1, JAK2, JAK3 and Tyk2 kinase activity, respectively, utilized the Omnia® Kinase fluorescence peptide substrate-based technology (Invitrogen). […] The reactions were therefore read at excitation 360 nm and emission was measured at 485 nm every 50 seconds for 45 minutes using a PerkinElmer EnVision Multilabel Plate Reader.
(§2) The final buffer conditions for each of the JAK1, JAK2, JAK3 and Tyk2 assays were as follows: 25 mM HEPES, pH 7.4, 10 mM MgCl2, 0.01% Triton X-100 and 1 mM DTT.
(§3) Compounds were prepared at 50× the final concentration in DMSO by conducting 3-fold serial dilutions from a 500-μM or 1000-μM intermediate dilution to give a 10-point dosing curve having a high dose of 10 or 20 μM. Two-μL aliquots of these were transferred to a fresh plate for a ten-fold intermediate dilution with assay buffer. Five-μL aliquots of the diluted compounds were then transferred to 20-μL of assay mixtures described in Examples C, D, E and F for a final concentration of DMSO of 2%. A standard or reference compound was typically included on each assay plate to validate that plate. For each plate, percent of control (POC) values were calculated for each well according to the following equation:
(§4) where Xmax=Average Uninhibited Controls • Xmin=Average Background IC50's were estimated from the POC's using a standard 4-parameter logistic model:
(§5) where A=Minimum Y (Bottom Asymptote) • B=Maximum Y (Top Asymptote) • C=EC50 • D=Slope Factor • X=Compound Concentration (nM) • Y=POC
(§6) The IC50 is defined as the concentration of inhibitor at which the POC equals 50 for the fitted curve.
Compounds of Formula I were screened for their ability to inhibit Jak3 using the general enzyme inhibition assay method, in which the assay mixture contained 500 μM ATP, 10 μM Omnia® Y7 peptide (Catalog # IVGN KNZ3071C, Invitrogen Corporation, Carlsbad, Calif.) and 1.5 nM Jak3 in a total volume of 20 μL. GST-tagged human Jak3 kinase domain comprising amino acids 781-1124 was purchased from Invitrogen Corporation, Carlsbad, Calif. (catalog # IVGN PV3855).

Experiment [2] addresses Jak1 (GST-tagged human Jak1 kinase domain, amino acids 866-1154) (Homo sapiens (Human), UniProt P23458). Kind of experiment: Jak1 inhibition assay (Omnia kinase assay). As to conditions: read-out: Jak1 (% inhibition at 1000 nM); Table 2; 1000 nM test compound. How it is done: as §1, §2, §3, §4, §5, §6
Compounds of Formula I were screened for their ability to inhibit Jak1 using the general enzyme inhibition assay method, in which the assay mixture contained 500 μM ATP, 8 μM Omnia® Y12 peptide (Catalog # IVGN KPZ3121C; Invitrogen Corporation, Carlsbad, Calif.) and 5 nM Jak1 in a total volume of 20 μL. […] (catalog # IVGN PV4774).

In experiment [3] the target is Jak2 (human Jak2 kinase domain, amino acids 808-1132) (Homo sapiens (Human), UniProt O60674). As to the kind of experiment: Jak2 inhibition assay (Omnia kinase assay). Conditions: for inhibition at 1 µM: 1000 nM test compound.
Experiment [4] has as its target Tyk2 (human Tyk2 kinase domain, amino acids 886 to 1187) (Homo sapiens (Human), UniProt P29597). Kind of experiment: Tyk2 inhibition assay (Omnia kinase assay). Conditions: read-out: Tyk2 (% inhibition at 1000 nM); Table 2; 1000 nM test compound. How it is done:
as §1, §2, §3, §4, §5, §6
Compounds of Formula I were screened for their ability to inhibit Tyk2 using the general enzyme inhibition assay method, in which the assay mixture contained 500 μM ATP, 8 μM Omnia® Y12 peptide (Catalog # IVGN KPZ3121C; Invitrogen Corporation, Carlsbad, Calif.) and 1 nM Tyk2 in a total volume of 20 μL. Human Tyk2 kinase domain, comprising amino acids 886 to 1187 with 10 additional histidine residues (histidine tag) on the carboxy terminus, was expressed and purified from baculovirus in-house at Array BioPharma Inc. (Boulder, Colo.). The histidine tag was cleaved after purification using standard conditions.

Experiment [5] has as its target TrkA (histidine-tagged recombinant human TrkA, cytoplasmic domain) (Homo sapiens (Human), UniProt P04629). As to the kind of experiment: TrkA ELISA assay. Conditions: Table 1, 500 μM ATP, read-out: TrkA Enzyme IC50. On the procedure: An enzyme-linked immunosorbant assay (ELISA) was used to assess TrkA kinase activity in the presence of inhibitors. Immulon 4HBX 384-well microtiter plates (Thermo part #8755) were coated with a 0.025 mg/mL solution of poly (Glu, Ala, Tyr; 6:3:1; Sigma P3899). […] The assay buffer consisted of 25 mM MOPS pH 7.5, 0.005% (v/v) Triton X-100 and 5 mM MgCl2. The reaction mixture was removed from the plate by washing with PBS containing 0.1% (v/v) Tween 20. The phosphorylated reaction product was detected using 0.2 μg/mL of a phosphotyrosine specific monoclonal antibody (clone PY20) conjugated to horseradish peroxidase in conjunction with the TMB Peroxidase Substrate System (KPL). After the addition of 1M phosphoric acid, the chromogenic substrate color intensity was quantitated via absorbance at 450 nm.

The mark [6] stands for this setting: read-out: Jak2 (% inhibition at 1000 nM), Table 2.
Where [7] appears, read: read-out: Jak2 Enzyme (% inhibition at 1000 nM), Table 1.

Jak3 (GST-tagged human Jak3 kinase domain, amino acids 781-1124), sequence (P52333 781-1124): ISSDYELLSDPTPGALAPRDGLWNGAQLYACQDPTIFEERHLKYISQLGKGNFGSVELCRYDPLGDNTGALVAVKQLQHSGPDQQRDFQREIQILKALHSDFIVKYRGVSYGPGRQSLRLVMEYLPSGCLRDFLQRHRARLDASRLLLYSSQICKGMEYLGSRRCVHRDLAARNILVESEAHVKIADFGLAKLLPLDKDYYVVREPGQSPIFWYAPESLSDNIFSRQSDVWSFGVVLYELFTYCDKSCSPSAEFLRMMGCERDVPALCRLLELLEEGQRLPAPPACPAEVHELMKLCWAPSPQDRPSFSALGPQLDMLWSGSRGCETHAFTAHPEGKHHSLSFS
Jak1 (GST-tagged human Jak1 kinase domain, amino acids 866-1154), sequence (P23458 866-1154): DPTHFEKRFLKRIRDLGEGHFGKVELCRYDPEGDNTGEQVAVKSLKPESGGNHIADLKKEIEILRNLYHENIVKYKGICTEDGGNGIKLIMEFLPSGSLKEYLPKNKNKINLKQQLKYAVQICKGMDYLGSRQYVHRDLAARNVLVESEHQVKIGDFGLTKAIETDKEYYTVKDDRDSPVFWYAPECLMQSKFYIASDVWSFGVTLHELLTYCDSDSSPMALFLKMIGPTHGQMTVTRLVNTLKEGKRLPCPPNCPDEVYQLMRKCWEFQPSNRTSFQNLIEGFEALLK
Jak2 (human Jak2 kinase domain, amino acids 808-1132), sequence (O60674 808-1132): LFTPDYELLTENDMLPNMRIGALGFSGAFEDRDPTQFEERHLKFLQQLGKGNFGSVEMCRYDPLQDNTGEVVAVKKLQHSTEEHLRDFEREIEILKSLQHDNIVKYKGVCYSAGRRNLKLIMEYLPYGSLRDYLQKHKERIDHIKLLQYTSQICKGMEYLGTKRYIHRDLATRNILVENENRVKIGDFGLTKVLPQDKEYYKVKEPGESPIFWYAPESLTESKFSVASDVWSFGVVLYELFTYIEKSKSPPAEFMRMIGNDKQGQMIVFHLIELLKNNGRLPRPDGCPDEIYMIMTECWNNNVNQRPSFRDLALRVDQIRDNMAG
Tyk2 (human Tyk2 kinase domain, amino acids 886 to 1187), sequence (P29597 886-1187): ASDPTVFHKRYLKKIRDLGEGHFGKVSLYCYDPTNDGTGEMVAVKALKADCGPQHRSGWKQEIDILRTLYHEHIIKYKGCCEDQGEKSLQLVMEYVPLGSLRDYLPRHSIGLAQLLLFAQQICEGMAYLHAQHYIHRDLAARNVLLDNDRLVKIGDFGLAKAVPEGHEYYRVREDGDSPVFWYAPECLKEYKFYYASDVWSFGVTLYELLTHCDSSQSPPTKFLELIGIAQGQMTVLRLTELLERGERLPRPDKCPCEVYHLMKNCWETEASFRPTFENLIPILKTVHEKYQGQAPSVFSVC
TrkA (histidine-tagged recombinant human TrkA, cytoplasmic domain), sequence (P04629 440-796): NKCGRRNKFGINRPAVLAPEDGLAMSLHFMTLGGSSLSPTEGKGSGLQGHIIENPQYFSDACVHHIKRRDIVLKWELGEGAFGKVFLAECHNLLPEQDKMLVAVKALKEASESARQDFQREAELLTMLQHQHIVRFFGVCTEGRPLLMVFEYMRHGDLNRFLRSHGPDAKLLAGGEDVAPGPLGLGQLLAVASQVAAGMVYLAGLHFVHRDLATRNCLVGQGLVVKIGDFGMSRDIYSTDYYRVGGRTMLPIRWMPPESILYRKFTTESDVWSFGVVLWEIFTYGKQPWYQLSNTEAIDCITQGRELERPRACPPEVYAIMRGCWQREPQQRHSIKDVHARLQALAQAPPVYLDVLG

For `O=C(NCC1CC1)c1cnn2ccc(N3CCC[C@@H]3c3cncc(F)c3)nc12` [Example 106, (R)-N-(cyclopropylmethyl)-5-(2-(5-fluoropyridin-3-yl)pyrrolidin-1-yl)pyrazolo[1,5-a]pyrimidine-3-carboxamide], the inhibition at 1 µM in experiment [1] is 9.7%; in experiment [2], 8.2%; in experiment [3] (setting [6]), 21%; in experiment [3] (setting [7]), 8%; in experiment [4], 14.8%.

Take `O=C(NC1CC1)c1cnn2ccc(N3CCC[C@@H]3c3cncc(F)c3)nc12` [Example 52, (R)—N-cyclopropyl-5-(2-(5-fluoropyridin-3-yl)pyrrolidin-1-yl)pyrazolo[1,5-a]pyrimidine-3-carboxamide]: the inhibition at 1 µM came to 0.8% in experiment [1]; 8.6% in experiment [2]; 13% in experiment [3] (setting [6]); 9.4% in experiment [3] (setting [7]); 13.8% in experiment [4].

Turning to `C[C@H](NC(=O)c1cnn2ccc(N3CCC[C@@H]3c3cncc(F)c3)nc12)C1CC1` [Example 124, N-((S)-1-cyclopropylethyl)-5-((R)-2-(5-fluoropyridin-3-yl)pyrrolidin-1-yl)pyrazolo[1,5-a]pyrimidine-3-carboxamide], the inhibition at 1 µM in experiment [1] was found to be 7.2%; in experiment [2], 36.4%; in experiment [3] (setting [6]), 72.3%; in experiment [3] (setting [7]), 53.3%; in experiment [4], 16.2%.

For the compound `O=C(N[C@@H]1CCC[C@H]1O)c1cnn2ccc(N3CCC[C@@H]3c3cncc(F)c3)nc12` [Example 133, 5-((R)-2-(5-fluoropyridin-3-yl)pyrrolidin-1-yl)-N-((1R,2R)-2-hydroxycyclopentyl)pyrazolo[1,5-a]pyrimidine-3-carboxamide], the inhibition at 1 µM in experiment [3] (setting [7]) was 14.4%. For the same compound, in experiment [5], the negative logarithm of the IC50 (pIC50) was 7.80.

For the compound `CC1(NC(=O)c2cnn3ccc(N4CCC[C@@H]4c4cncc(F)c4)nc23)CC1` [Example 91, (R)-5-(2-(5-fluoropyridin-3-yl)pyrrolidin-1-yl)-N-(1-methylcyclopropyl)pyrazolo[1,5-a]pyrimidine-3-carboxamide], the inhibition at 1 µM in experiment [1] is 8.3%; in experiment [2], 20.3%; in experiment [3] (setting [6]) it was 42.1%; in experiment [3] (setting [7]), 34.9%; in experiment [4], 14.8%.

Consider `COc1ncc(F)cc1[C@H]1CCCN1c1ccn2ncc(C(=O)N[C@H]3CC[C@H](O)CC3)c2n1` [Example 140, 5-((R)-2-(5-fluoro-2-methoxypyridin-3-yl)pyrrolidin-1-yl)-N-((trans)-4-hydroxycyclohexyl)pyrazolo[1,5-a]pyrimidine-3-carboxamide], for which the inhibition at 1 µM in experiment [1] came out at 20.2%; in experiment [2] it was 64.2%; in experiment [3] (setting [6]), 98.5%; in experiment [3] (setting [7]), 90.1%; in experiment [4], 34.8%.

Regarding `NC(=O)c1cnn2ccc(N3CCC[C@@H]3c3cc(F)ccc3F)nc12` [Example 30, (R)-5-(2-(2,5-difluorophenyl)pyrrolidin-1-yl)pyrazolo[1,5-a]pyrimidine-3-carboxamide], the inhibition at 1 µM was determined as 2.9% in experiment [1]; 13.4% in experiment [2]; 30.4% in experiment [3] (setting [6]); 25.7% in experiment [3] (setting [7]); 11.3% in experiment [4].

As for `Cc1ncc(F)cc1[C@H]1CCCN1c1ccn2ncc(C(=O)NC3(C)CC3)c2n1` [Example 190, (R)-5-(2-(5-fluoro-2-methylpyridin-3-yl)pyrrolidin-1-yl)-N-(1-methylcyclopropyl)pyrazolo[1,5-a]pyrimidine-3-carboxamide], the inhibition at 1 µM in experiment [1] stood at 7.2%; in experiment [2] it was 14.3%; in experiment [3] (setting [6]), 33.9%; in experiment [3] (setting [7]), 28.4%; in experiment [4], 13.4%.

Consider `O=C(NC1(C(F)(F)F)CC1)c1cnn2ccc(N3CCC[C@@H]3c3cncc(F)c3)nc12` [Example 98, (R)-5-(2-(5-fluoropyridin-3-yl)pyrrolidin-1-yl)-N-(1-(trifluoromethyl)cyclopropyl)pyrazolo[1,5-a]pyrimidine-3-carboxamide], for which the inhibition at 1 µM in experiment [1] worked out at 5.5%; in experiment [2] it was 8.8%; in experiment [3] (setting [6]) it was 27.8%; in experiment [3] (setting [7]), 23.7%; in experiment [4] it was 9.2%.

With `CCc1ncc(F)cc1[C@H]1CCCN1c1ccn2ncc(C(=O)N[C@H]3CC[C@H](O)C3)c2n1` [Example 200, 5-((R)-2-(2-ethyl-5-fluoropyridin-3-yl)pyrrolidin-1-yl)-N-((1S,3S)-3-hydroxycyclopentyl)pyrazolo[1,5-a]pyrimidine-3-carboxamide], the pIC50 was under 6.00 in experiment [3] (Table 1, 500 μM ATP, >1000 nM when >50% inhibition not observed at 1000 nM, read-out: Jak2 Enzyme IC50) and 7.90 in experiment [5]. The inhibition at 1 µM in experiment [3] (setting [7]) was 12.5%.

Take `C[C@@H](NC(=O)c1cnn2ccc(N3CCC[C@@H]3c3cncc(F)c3)nc12)C1CC1` [Example 123, N-((R)-1-cyclopropylethyl)-5-((R)-2-(5-fluoropyridin-3-yl)pyrrolidin-1-yl)pyrazolo[1,5-a]pyrimidine-3-carboxamide]: the inhibition at 1 µM amounted to 8.9% in experiment [1]; 22% in experiment [2]; 49.1% in experiment [3] (setting [6]); 38.8% in experiment [3] (setting [7]); 14.4% in experiment [4].

With `Cc1ncc(F)cc1[C@H]1CCCN1c1ccn2ncc(C(=O)N[C@H]3CC[C@H](O)CC3)c2n1` [Example 194, 5-((R)-2-(5-fluoro-2-methylpyridin-3-yl)pyrrolidin-1-yl)-N-((trans)-4-hydroxycyclohexyl)pyrazolo[1,5-a]pyrimidine-3-carboxamide], the inhibition at 1 µM in experiment [1] was found to be 2.6%; in experiment [2], 7.4%; in experiment [3] (setting [6]), 37.6%; in experiment [3] (setting [7]), 31.2%; in experiment [4], 8.1%.

Regarding `CC(C)NC(=O)c1cnn2ccc(N3CCC[C@@H]3c3cncc(F)c3)nc12` [Example 93, (R)-5-(2-(5-fluoropyridin-3-yl)pyrrolidin-1-yl)-N-isopropylpyrazolo[1,5-a]pyrimidine-3-carboxamide], the inhibition at 1 µM in experiment [1] was determined as 10.6%; in experiment [2] it was 19.7%; in experiment [3] (setting [6]), 42.2%; in experiment [3] (setting [7]), 34.7%; in experiment [4] it was 17.2%.
